Results published in patent US9296697B2, “Hetaryl-substituted guanidine compounds and use thereof as binding partners for 5-HT5-receptors” (Abbott Laboratories, priority 2005, dated 2016).

Each compound was assayed against T1, h5-HT5A receptor (Homo sapiens, UniProt P47898) (assay: h5-HT5A [3H]5-CT binding assay). Details: affinity for 5-HT5A; membranes of HEK293 cells expressing the h5-HT5A receptor gene, 2.5 nM [3H]5-CT.
T1 construct: expressed in transfected cells; membranes used
Description: h5-HT5A [^3H]5-CT Binding Assay
Membranes of HEK293 cells which permanently express the h5-HT5A receptor gene were incubated in 100 mM tris-HCl buffer (pH 7.7) containing 1 mM EDTA, in the presence of 2.5 nM [^3H]5-CT (total volume 600 μL). The total binding is defined as the binding that is observed when the membranes are incubated in the presence of only the radioligand. The inhibition induced by the compound is determined by incubation of cell membranes in the presence of the radioligand and various concentrations of the compound of interest. Nonspecific binding is defined as the [^3H]5-CT binding obtained by incubation of the membranes, the same as for the total binding, but in the presence of 10 μM methiothepine. Following incubation for 75 min at 30° C., the membrane suspension was filtered through a GF/B-Filter coated with 0.03% PEI, using a Skatron® harvesting system. The residual radioactivity in the filter was quantified by liquid scintillation counting.
Various concentrations of the test substances were used in both assays, and the Ki or IC50 values were determined.

T1 sequence (P47898 whole entry): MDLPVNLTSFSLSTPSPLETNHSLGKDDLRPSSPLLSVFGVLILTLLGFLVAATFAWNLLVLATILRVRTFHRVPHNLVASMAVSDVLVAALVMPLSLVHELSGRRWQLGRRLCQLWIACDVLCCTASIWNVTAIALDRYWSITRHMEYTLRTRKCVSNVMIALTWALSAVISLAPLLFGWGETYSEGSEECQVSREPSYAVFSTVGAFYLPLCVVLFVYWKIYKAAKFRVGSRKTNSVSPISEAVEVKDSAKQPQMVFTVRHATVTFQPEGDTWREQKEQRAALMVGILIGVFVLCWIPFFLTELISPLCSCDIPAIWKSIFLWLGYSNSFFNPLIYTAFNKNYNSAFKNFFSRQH

Ki	SMILES
< 0.1 µM	COc1cccc(Cl)c1CNC(=N)Nc1ccc(I)cn1 [Example 91, N-(2-Chloro-6-methoxybenzyl)-N′-(5-iodopyridin-2-yl)guanidine acetate]
< 0.1 µM	COc1cccc(OC)c1CNC(=N)Nc1cccc(C)n1 [Example 9, N-(2,6-dimethoxybenzyl)-N′-(6-methylpyridin-2-yl)guanidine]
< 10 µM	COc1ccccc1CNC(=N)Nc1ncccc1Br [Example 47, N-(3-Bromopyridin-2-yl)-N′-(2-methoxybenzyl)guanidine acetate]
< 0.1 µM	COc1cccc(OC)c1CNC(=N)Nc1ncccn1 [Example 37, N-(2,6-Dimethoxybenzyl)-N′-pyrimidin-2-ylguanidine]
< 0.1 µM	COc1cccc(OC)c1CNC(=N)Nc1ccc(C)cn1 [Example 7, N-(2,6-dimethoxybenzyl)-N′-(5-methylpyridin-2-yl)guanidine]
< 0.1 µM	COc1cccc(F)c1CNC(=N)Nc1ccc(I)cn1 [Example 92, N-(2-Fluoro-6-methoxybenzyl)-N′-(5-iodopyridin-2-yl)guanidine acetate]
< 0.1 µM	COc1ccccc1CNC(=N)Nc1ncccc1C [Example 12, N-(2-Methoxybenzyl)-N′-(3-methylpyridin-2-yl)guanidine acetate]
< 0.1 µM	COc1cccc(F)c1CNC(=N)Nc1ccc(C)cn1 [Example 20, N-(2-Fluoro-6-methoxybenzyl)-N′-(5-methylpyridin-2-yl)guanidine acetate]
< 0.1 µM	COc1cccc(OC)c1CNC(=N)Nc1cc(Br)ccn1 [Example 44, N-(4-Bromopyridin-2-yl)-N′-(2,6-dimethoxybenzyl)guanidine]
< 0.1 µM	COc1cccc(C)c1CNC(=N)Nc1ccc(I)cn1 [Example 93, N-(5-Iodopyridin-2-yl)-N′-(2-methoxy-6-methylbenzyl)guanidine acetate]
< 0.1 µM	COc1cccc(C)c1CNC(=N)Nc1ccc(C)cn1 [Example 19, N-(2-Methoxy-6-methylbenzyl)-N′-(5-methylpyridin-2-yl)guanidine]
< 0.1 µM	COc1cccc(Cl)c1CNC(=N)Nc1ncccc1C [Example 31, N-(2-Chloro-6-methoxybenzyl)-N′-(3-methylpyridin-2-yl)guanidine]
< 0.1 µM	COc1cccc(F)c1CNC(=N)Nc1cccc(Br)n1 [Example 72, N-(6-Bromopyridin-2-yl)-N′-(2-fluoro-6-methoxybenzyl)guanidine]
< 0.1 µM	COc1cccc(C)c1CNC(=N)Nc1ccc(C#N)cn1 [Example 97, N-(5-Cyanopyridin-2-yl)-N′-(2-methoxy-6-methylbenzyl)guanidine acetate]
< 0.1 µM	COc1cccc(C)c1CNC(=N)Nc1cccc(C#N)n1 [Example 76, N-(2-Methoxy-6-methylbenzyl)-N′-(6-cyanopyridin-2-yl)guanidine acetate]
< 0.1 µM	COc1cccc(OC)c1CNC(=N)Nc1ncccc1Br [Example 46, N-(3-Bromopyridin-2-yl)-N′-(2,6-dimethoxybenzyl)guanidine acetate]

Second part, the compound before the results:

SMILES	Ki
COc1cccc(OC)c1CNC(=N)Nc1cccc(-c2ccccc2)n1 [Example 53, N-(2,6-Dimethoxybenzyl)-N′-(6-phenylpyridin-2-yl)guanidine acetate]	< 0.1 µM
COc1ccccc1CNC(=N)Nc1cc(C#N)ccn1 [Example 66, N-(4-Cyanopyridin-2-yl)-N′-(2-methoxybenzyl)guanidine acetate]	< 0.1 µM
COc1ccccc1CNC(=N)Nc1ccc(-c2cccs2)cn1 [Example 87, N-(2-Methoxybenzyl)-N′-[5-(2-thienyl)pyridin-2-yl]guanidine]	< 0.1 µM
CC(C)Oc1ccccc1CNC(=N)Nc1cccc(C#N)n1 [Example 80, N-(6-Cyanopyridin-2-yl)-N′-(2-isopropoxybenzyl)guanidine acetate]	< 0.1 µM
COc1ccccc1CNC(=N)Nc1cccc(-c2cccs2)n1 [Example 49, N-(2-Methoxybenzyl)-N′-[6-(2-thienyl)pyridin-2-yl]guanidine]	< 0.1 µM
COc1cccc(OC)c1CNC(=N)Nc1ccc(I)cn1 [Example 3, N-(2,6-dimethoxybenzyl)-N′-(5-iodopyridin-2-yl)guanidine]	< 0.1 µM
COc1ccccc1CNC(=N)Nc1ccc2ccccc2n1 [Example 40, N-(2-Methoxybenzyl)-N′-quinolin-2-yl-guanidine acetate]	< 0.1 µM
COc1cccc(OC)c1CNC(=N)Nc1cccc(Cc2ccccc2)n1 [Example 70, N-(6-Benzylpyridin-2-yl)-N′-(2,6-dimethoxybenzyl)guanidine acetate]	< 0.1 µM
COc1ccccc1CNC(=N)Nc1ccc(C#N)cn1 [Example 90, N-(5-Cyanopyridin-2-yl)-N′-(2-methoxybenzyl)guanidine]	< 0.1 µM
COc1ccccc1CNC(=N)Nc1cccc(C)n1 [Example 8, N-(2-Methoxybenzyl)-N′-(6-methylpyridin-2-yl)guanidine]	< 0.1 µM
COc1ccccc1CNC(=N)Nc1ncccc1-c1ccccc1 [Example 62, N-(2-Methoxybenzyl)-N′-(3-phenylpyridin-2-yl)guanidine acetate]	< 0.1 µM
CC(C)Oc1ccccc1CNC(=N)Nc1cccc(Br)n1 [Example 74, N-(6-Bromopyridin-2-yl)-N′-(2-isopropoxybenzyl)guanidine]	< 0.1 µM
COc1ccccc1CNC(=N)Nc1cc(-c2ccccc2)ccn1 [Example 58, N-(2-Methoxybenzyl)-N′-(4-phenylpyridin-2-yl)guanidine acetate]	< 0.1 µM
COc1ccccc1CNC(=N)Nc1cc(C)ccn1 [Example 29, N-(2-Methoxybenzyl)-N′-(4-methylpyridin-2-yl)guanidine acetate]	< 0.1 µM
COc1ccccc1CNC(=N)Nc1cnc2ccccc2c1 [Example 16, N-(2-Methoxybenzyl)-N′-quinolin-3-yl-guanidine acetate]	< 10 µM
N=C(NCc1ccccc1OC(F)(F)F)Nc1cccc(Br)n1 [Example 73, N-(6-Bromopyridin-2-yl)-N′-[2-(trifluoromethoxy)benzyl]guanidine]	< 0.1 µM
COc1cccc(OC)c1CNC(=N)Nc1cccc(C#N)n1 [Example 55, N-(6-Cyanopyridin-2-yl)-N′-(2,6-dimethoxybenzyl)guanidine acetate]	< 0.1 µM

SMILES	Ki
CCOc1ccccc1CNC(=N)Nc1cccc(C#N)n1 [Example 81, N-(6-Cyanopyridin-2-yl)-N′-(2-ethoxybenzyl)guanidine acetate]	< 0.1 µM
COc1ccccc1CNC(=N)Nc1cc2ccccc2cn1 [Example 38, N-Isoquinolin-3-yl-N′-(2-methoxybenzyl)guanidine]	< 0.1 µM
COc1ccccc1CNC(=N)Nc1cccc(-c2ccccc2)n1 [Example 51, N-(2-Methoxybenzyl)-N′-(6-phenylpyridin-2-yl)guanidine acetate]	< 0.1 µM
COc1cccc(OC)c1CNC(=N)Nc1ncc(C(F)(F)F)cc1Cl [Example 11, N-[3-Chloro-5-(trifluoromethyl)pyridin-2-yl]-N′-(2,6-dimethoxybenzyl)guanidine acetate]	< 10 µM
COc1ccccc1CNC(=N)Nc1ncc(C(F)(F)F)cc1Cl [Example 10, N-[3-Chloro-5-(trifluoromethyl)pyridin-2-yl]-N′-(2-methoxybenzyl)guanidine acetate]	< 10 µM
COc1cccc(OC)c1CNC(=N)Nc1ccc(-c2ccccc2)cn1 [Example 83, N-(2,6-Dimethoxybenzyl)-N′-(5-phenylpyridin-2-yl) guanidine acetate]	< 0.1 µM
COc1cccc(OC)c1CNC(=N)Nc1ccc(Cc2ccccc2)cn1 [Example 68, N-(5-Benzylpyridin-2-yl)-N′-(2,6-dimethoxybenzyl)guanidine acetate]	< 0.1 µM
COc1ccccc1CNC(=N)Nc1cccc(-c2ccc(F)cc2)n1 [Example 50, N-[6-(4-Fluorophenyl)pyridin-2-yl]-N′-(2-methoxybenzyl)guanidine]	< 0.3 µM
COc1ccccc1CNC(=N)Nc1ccc(Cc2ccccc2)cn1 [Example 67, N-(5-Benzylpyridin-2-yl)-N′-(2-methoxybenzyl)guanidine acetate]	< 0.1 µM
COc1ccccc1CNC(=N)Nc1cccnc1 [Example 34, N-(2-Methoxybenzyl)-N′-pyridin-3-yl-guanidine acetate]	< 10 µM
COc1cccc(OC)c1CNC(=N)Nc1cc(-c2ccccc2)ccn1 [Example 56, N-(2,6-Dimethoxybenzyl)-N′-(4-phenylpyridin-2-yl)guanidine diacetate]	< 0.1 µM
COc1ccccc1CNC(=N)Nc1cccc(-c2ccc(OC(F)(F)F)cc2)n1 [Example 48, N-(2-Methoxybenzyl)-N′-{6-[4-(trifluoromethoxy)phenyl]pyridin-2-yl}guanidine]	< 10 µM
COc1ccccc1CNC(=N)Nc1ccc(C)cn1 [Example 6, N-(2-methoxybenzyl)-N′-(5-methylpyridin-2-yl)guanidine acetate]	< 0.1 µM
COc1ccccc1CNC(=N)Nc1cccc(Cc2ccccc2)n1 [Example 69, N-(6-Benzylpyridin-2-yl)-N′-(2-methoxybenzyl)guanidine acetate]	< 0.1 µM
COc1cccc(OC)c1CNC(=N)Nc1nccc(-c2cccs2)n1 [Example 15, N-(2,6-Dimethoxybenzyl)-N′-[4-(2-thienyl)pyrimidin-2-yl]guanidine acetate]	< 0.1 µM
COc1cccc(F)c1CNC(=N)Nc1ccc(C#N)cn1 [Example 96, N-(5-Cyanopyridin-2-yl)-N′-(2-fluoro-6-methoxybenzyl)guanidine acetate]	< 0.1 µM
